# Reference: patent US8729081B2, “Compositions and methods for treating alcohol use disorders, pain and other diseases” (VM Discovery Inc., priority 2008, dated 2014)
# Tested on: C57BL/6J mice
# Experiment: Alcohol intake in Drink-in-Dark (DID) model
# Assay type: in vivo
# Details: 4-hr drinking in the dark (DID) protocol, compared with vehicle control, FIG. 2
# Text: FIG. 2. […] The data are presented as mean±SEM. *p<0.05, ***p<0.001 as compared with the vehicle control.
# Alcohol Intake in Drink-in-Dark (DID) model (Rhodes J S, et al, Physiol Behav. (2005) 84:53-63). Mice are acclimated in animal facility and housed three to four per cage in standard cages until 1 week prior to the start of an experiment when they are transferred to individual housing. Approximately 2 weeks prior to the start of an experiment, the mice are switched to a reverse light/dark schedule such that lights turned on at 2030 h and off at 0830 h. Food (Purina 5001™) is always provided ad libitum. Water is provided ad libitum except when ethanol is substituted for water for 4 h per day. The animals are divided into 4 groups and given intraperitoneal (i.p.) injections of vehicle, and a test article (TA) at 5, 20 and 50 mg/kg body weight, respectively, starting 3 h after lights off in the animal rooms. Then the water bottles are replaced with 10 ml graduated cylinders fitted with sipper tubes containing 20% (v/v) ethanol in tap water. The ethanol cylinders remain in place for 4 h. The fluid levels are checked every 30 minutes for 4 h. After the 4-h period, the ethanol cylinders are replaced with water bottles. […] Similarly, mice are administered with TA by oral gavage and ethanol or water intake is monitored for 4 h.
row,SMILES,oral intake of alcohol (20% ethanol)
1,"Cc1oc(-c2ccc(Cl)cc2)nc1CN1CCC(C(=O)NCCCN2CCCCCC2)CC1 [Compound 901, N-[3-(azepan-1-yl)propyl]-1-{[2-(4-chlorophenyl)-5-methyl-1,3-oxazol-4-yl]methyl}piperidine-4-carboxamide]",significantly reduced

# Target: T1, PKCε (h) (Homo sapiens, UniProt Q02156)
# T1 construct: host or cells: insect cells
# T1 sequence (Q02156 1-737): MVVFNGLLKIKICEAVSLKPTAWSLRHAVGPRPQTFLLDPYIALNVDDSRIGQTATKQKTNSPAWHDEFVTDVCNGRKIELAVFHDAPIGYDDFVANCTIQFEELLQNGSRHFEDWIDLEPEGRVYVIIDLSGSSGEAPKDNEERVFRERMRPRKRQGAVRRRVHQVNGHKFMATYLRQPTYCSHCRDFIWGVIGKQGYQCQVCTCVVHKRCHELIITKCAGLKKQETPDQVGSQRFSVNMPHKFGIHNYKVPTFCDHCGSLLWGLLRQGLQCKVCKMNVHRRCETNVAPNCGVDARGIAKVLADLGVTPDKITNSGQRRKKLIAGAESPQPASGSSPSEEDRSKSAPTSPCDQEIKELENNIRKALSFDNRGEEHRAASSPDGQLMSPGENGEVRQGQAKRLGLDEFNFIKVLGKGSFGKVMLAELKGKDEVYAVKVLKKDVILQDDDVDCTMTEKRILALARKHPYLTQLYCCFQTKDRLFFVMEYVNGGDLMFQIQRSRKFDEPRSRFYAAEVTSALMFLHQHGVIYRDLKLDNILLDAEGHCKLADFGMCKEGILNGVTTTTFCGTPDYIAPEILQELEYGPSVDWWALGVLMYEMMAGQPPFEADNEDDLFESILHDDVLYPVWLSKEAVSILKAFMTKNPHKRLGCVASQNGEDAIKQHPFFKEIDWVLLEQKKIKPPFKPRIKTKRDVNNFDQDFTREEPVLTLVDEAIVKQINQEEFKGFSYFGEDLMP
# Experiment: In vitro PKCε kinase assay (radiometric, [γ-33P-ATP], HotSpot)
# Assay type: biochemical
# Details: recombinant human PKCε, 10 μM ATP; read-out: IC50 in antagonizing the PKCε
# Protocol: There are many in vitro commercially available and validated bioassays (Ma, H., et al, Expert Opin Drug Discov. 2008 June; 3(6): 607-621 and references therein) which can be used to characterize the activities of compounds of the present invention against PKCε protein kinase. Compounds can be tested against the activity of recombinant PKCε. In a final reaction volume of 25 μL, PKCε (h) (0.4 nM, Human recombinant protein expressed in insect cells. Mw=83.7 kDa) is incubated with kinase buffer (20 mM HEPES-HCl, pH 7.5, 10 mM MgCl2, 1 mM EGTA, 0.02% Brij35, 0.1 mM Na3VO4, 0.02 mg/ml BSA, 2 mM DTT, and 1% DMSO), 0.1 mg/mL phosphatidylserine, 10 μg/mL diacylglycerol, 20 μM S25-PKC peptide substrate (RFARKGSLRQKNV-OH, Mw=1561 Da), 10 mM MgAcetate and 10 μM [γ-33P-ATP] (specific activity approx. 500 cpm/pmol). The reaction is initiated by the addition of the MgATP mix. After incubation for 40 minutes at room temperature, the reaction is stopped by the addition of 5 μL of a 3% phosphoric acid solution. 10 μL of the reaction is then spotted onto a P30 filtermat and washed three times for 5 minutes in 75 mM phosphoric acid and once in methanol prior to drying and scintillation counting Control samples are incubated without inhibitor to measure maximal activity or with the general kinase inhibitor Staurosporine (5 μM) to measure complete inhibition. For each compound the % inhibition can be calculated by the formula, or by curve fits: % Inhibition=(Max activity−Activity with compound)/(Max activity−Activity with Control)*100. Compounds with inhibitory activity are assayed using at least 5 concentrations (1 nM-300 μM). Concentrations are adjusted to generate a complete dose-response curve. Each sample is assayed in duplicate and each experiment is repeated three times. Results are fitted by non-linear regression analysis to a sigmoidal dose-response curve with variable slope to calculate Hill slope, log IC50 and Imax values for each inhibitor, using the program Prism 5 (GraphPad Software, Inc., San Diego, Calif.).
# Kinase profiling was performed using HotSpot technology (Reaction Biology Corp. 11 Malvern, Pa., USA). This technology is a radioisotope-based P81 filter-binding assay. Compound of the present invention were dissolved in pure DMSO to make a 10 mM stock, then diluted in pure DMSO to make a serial dilution based on the IC50 ranges. PKCε (h) (0.4 nM, human recombinant protein expressed in insect cells. Mw=83.7 kDa) and substrate (20 μM peptide substrate, [RFARKGSLRQKNV]) were diluted in the reaction buffer (20 mM HEPES-HCl, pH 7.5, 10 mM MgCl2, 1 mM EGTA, 0.02% Brij35, 0.1 mM Na3VO4, 0.02 mg/ml BSA, 2 mM DTT, and 1% DMSO), and then 5 nL of compound was delivered into PKCε (h) and substrate mixture by acoustic technology using Echo 550 (LabCyte Inc., Sunnyvale, Calif.). The reaction was initiated by the addition of [γ-33P-ATP] into the reaction mixture (final concentration was 10 μM) and stopped after at least 40 min incubation at room temperature. The unreacted free 33P-ATP was washed away before detection.
# The intrinsic PKCε antagonist activity of a compound which may be used in the present invention may be determined by these assays. […] Such a result is indicative of the intrinsic activity of the compounds in use as antagonists of PKCε.
row,SMILES,IC50
1,"C/C(=C1/Oc2ccccc2N(Cc2ccc(F)cc2F)C1=O)c1ccc(C(=O)NCCCN2CCOCC2)cc1 [Compound 837, 4-{(1Z/1E)-1-[4-(2,4-difluorobenzyl)-3-oxo-3,4-dihydro-2H-1,4-benzoxazin-2-ylidene]ethyl}-N-[3-(morpholin-4-yl)propyl]benzamide]",10 to 1000 nM
2,"CC(=C1Oc2ccccc2N(Cc2ccc(F)cc2)C1=O)c1ccc(C(=O)NCCCN2CCCCCC2)cc1 (mixture of isomers) [Compound 821, N-[3-(azepan-1-yl)propyl]-4-{(1Z/1E)-1-[4-(4-fluorobenzyl)-3-oxo-3,4-dihydro-2H-1,4-benzoxazin-2-ylidene]ethyl}benzamide]",10 to 1000 nM
3,"O=C(NCCCc1ccncc1)c1ccc(C=C2Sc3ccccc3N(Cc3ccccc3F)C2=O)cc1 (mixture of isomers) [Compound 825, 4-{(Z/E)-[4-(2-fluorobenzyl)-3-oxo-3,4-dihydro-2H-1,4-benzothiazin-2-ylidene]methyl}-N-[3-(pyridin-4-yl)propyl]benzamide]",10 to 1000 nM
4,"Cc1oc(-c2ccc(Cl)cc2)nc1CN1CCC(C(=O)N(C)CCCN2CCCCCC2)CC1 [Compound 929, N-[3-(azepan-1-yl)propyl]-1-{[2-(4-chlorophenyl)-5-methyl-1,3-oxazol-4-yl]methyl}-N-methylpiperidine-4-carboxamide]",10 to 1000 nM
5,"O=C(NCN1CCC2CCCCC2C1)c1ccc(/C=C2\Oc3ccccc3N(Cc3ccccc3F)C2=O)cc1 (mixture of isomers) [Compound 817, 4-{(Z/E)-[4-(2-fluorobenzyl)-3-oxo-3,4-dihydro-2H-1,4-benzoxazin-2-ylidene]methyl}-N-(octahydroisoquinolin-2(1H)-ylmethyl)benzamide]",10 to 1000 nM
6,"O=C(NCCCN1CCCC1)c1ccc(C=C2Oc3ccccc3N(Cc3ccccc3C(F)(F)F)C2=O)cc1 (mixture of isomers) [Compound 801, 4-[(Z/E)-{3-oxo-4-[2-(trifluoromethyl)benzyl]-3,4-dihydro-2H-1,4-benzoxazin-2-ylidene}methyl]-N-[3-(pyrrolidin-1-yl)propyl]benzamide]",10 to 1000 nM
7,"Cc1oc(-c2cccc(Cl)c2)nc1CN1CCC(C(=O)NCCCN2CCC(Cc3cccc(Cl)c3)CC2)CC1 [Compound 911, N-{3-[4-(3-chlorobenzyl)piperidin-1-yl]propyl}-1-{[2-(3-chlorophenyl)-5-methyl-1,3-oxazol-4-yl]methyl}piperidine-4-carboxamide]",10 to 1000 nM
8,"Cc1oc(-c2ccc(Cl)cc2)nc1CN1CCC(C(=O)NCCCN2CCC(Cc3ccccc3)CC2)CC1 [Compound 907, N-[3-(4-benzylpiperidin-1-yl)propyl]-1-{[2-(4-chlorophenyl)-5-methyl-1,3-oxazol-4-yl]methyl}piperidine-4-carboxamide]",10 to 1000 nM

# More lines, now with the values ahead:
row,IC50,SMILES
1,10 to 1000 nM,"Cc1oc(-c2ccc(Cl)cc2)nc1CN1CCC(C(=O)NCCN2CCCC2)CC1 [Compound 597, 1-{[2-(4-chlorophenyl)-5-methyl-1,3-oxazol-4-yl]methyl}-N-(2-pyrrolidin-1-ylethyl)piperidine-4-carboxamide]"
2,10 to 1000 nM,"CC(=C1Oc2ccccc2N(Cc2ccc(F)cc2)C1=O)c1ccc(C(=O)NCCCN2CCOCC2)cc1 (mixture of isomers) [Compound 829, N-4-{(1Z/1E)-1-[4-(4-fluorobenzyl)-3-oxo-3,4-dihydro-2H-1,4-benzoxazin-2-ylidene]ethyl}-N-[3-(morpholin-4-yl)propyl]benzamide]"
3,10 to 1000 nM,"O=C(NCCCN1CCCCCC1)c1ccc(C=C2Sc3ccccc3N(Cc3ccccc3F)C2=O)cc1 (mixture of isomers) [Compound 485, N-[3-(azepan-1-yl)propyl]-4-{(Z/E)-[4-(2-fluorobenzyl)-3-oxo-3,4-dihydro-2H-1,4-benzothiazin-2-ylidene]methyl}benzamide]"
4,10 to 1000 nM,"Cc1oc(-c2ccc3c(c2)OCO3)nc1CN1CCC(C(=O)NCCCN2CCCCCC2)CC1 [Compound 949, N-[3-(azepan-1-yl)propyl]-1-{[2-(1,3-benzodioxol-5-yl)-5-methyl-1,3-oxazol-4-yl]methyl}piperidine-4-carboxamide]"
5,10 to 1000 nM,"Cc1oc(-c2ccc(Cl)cc2)nc1CN1CCC(C(=O)NCCCN2CCOCC2)CC1 [Compound 935, 1-{[2-(4-chlorophenyl)-5-methyl-1,3-oxazol-4-yl]methyl}-N-[3-(morpholin-4-yl)propyl]piperidine-4-carboxamide]"
6,10 to 1000 nM,"O=C(NCCCN1CCCC1)c1ccc(/C=C2\Oc3ccccc3N(Cc3ccccc3F)C2=O)cc1 [Compound 483, 4-{(Z/E)-[4-(2-fluorobenzyl)-3-oxo-3,4-dihydro-2H-1,4-benzoxazin-2-ylidene]methyl}-N-[3-(pyrrolidin-1-yl)propyl]benzamide hydrate]"
7,10 to 1000 nM,"CN(CCCN1CCOCC1)C(=O)c1ccc(C=C2Oc3ccccc3N(Cc3ccccc3F)C2=O)cc1 (mixture of isomers) [Compound 841, 4-{(Z/E)-[4-(2-fluorobenzyl)-3-oxo-3,4-dihydro-2H-1,4-benzoxazin-2-ylidene]methyl}-N-methyl-N-[3-(morpholin-4-yl)propyl]benzamide]"
8,10 to 1000 nM,"Cc1oc(-c2ccc(Cl)cc2)nc1CN1CCC(C(=O)NCCCN2CCCCCC2)CC1 [Compound 901, N-[3-(azepan-1-yl)propyl]-1-{[2-(4-chlorophenyl)-5-methyl-1,3-oxazol-4-yl]methyl}piperidine-4-carboxamide]"
